13 compounds from ChEMBL document CHEMBL5053541, “Andrographolide derivative as antagonist of vitamin D receptor to induce lipidation of microtubule associate protein 1 light chain 3 (LC3)” (Bioorg Med Chem, 2021) can be followed below.

The source made the active and inactive calls. The calls are words filed in the database; no cut-off is given here.

For one data set, the system named is HeLa. Briefly: Cytotoxicity against human HeLa cells assessed as reduction in cell viability measured after 24 hrs by methylene blue staining based assay.
Data set [1] has as its target T1, Vitamin D3 receptor (Homo sapiens) (UniProt P11473).
T1 sequence (whole entry): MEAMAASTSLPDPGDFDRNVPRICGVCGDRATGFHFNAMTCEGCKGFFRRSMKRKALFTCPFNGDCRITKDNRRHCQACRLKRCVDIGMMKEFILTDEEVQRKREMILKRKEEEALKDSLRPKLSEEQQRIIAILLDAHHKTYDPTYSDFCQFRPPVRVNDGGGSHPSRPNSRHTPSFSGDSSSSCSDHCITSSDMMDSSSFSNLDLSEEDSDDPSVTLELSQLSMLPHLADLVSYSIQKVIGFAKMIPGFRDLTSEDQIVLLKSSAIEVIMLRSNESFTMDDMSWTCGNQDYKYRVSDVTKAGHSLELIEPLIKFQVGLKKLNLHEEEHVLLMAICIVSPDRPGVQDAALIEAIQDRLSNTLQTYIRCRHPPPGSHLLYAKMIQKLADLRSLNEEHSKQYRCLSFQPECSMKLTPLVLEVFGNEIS
Briefly: Antagonist activity against calcitriol-activated VDR signalling in human HeLa cells assessed as inhibition of VDR signalling incubated with calcitriol for 1 hr followed by compound addition and measured after 24 hrs by luciferase reporter gene assay. Format: cell-based. (In a reporter assay the amount or activity of a reporter protein is the signal.)

Data set [2] addresses Nuclear factor NF-kappa-B complex (Homo sapiens) (UniProt Q00653+P19838+Q04206). Briefly: Inhibition of TNF-alpha induced NF-kappaB signalling in human HeLa cells incubated with TNF-alpha for 1 hr followed by compound addition and measured after 24 hrs by luciferase reporter gene assay. Format: cell-based.
Data set [3] concerns the target Signal transducer and activator of transcription 3 (Homo sapiens) (UniProt P40763). Briefly: Inhibition of IFN-gamma stimulated STAT3 signalling in human HeLa cells incubated for 1 hr withIFN-gamma followed by compound addition and measured after 24 hrs by luciferase reporter gene assay. Format: cell-based.
In data set [4] the target is T1, Vitamin D3 receptor (Homo sapiens). Briefly: Antagonist activity at VDR in human HeLa cells assessed as decrease in p62 expression at 10 uM in presence or absence of calcitriol measured after 4 hrs by western blot analysis. Format: cell-based. The conditions noted are these: filed as antagonist. (In western blotting, separated proteins are transferred to a membrane and probed.)

In data set [5] the test system is N2a. Briefly: Induction of autophagy in MPP+-induced mouse N2a cells expressing myc-VDR plasmid assessed as LC3 lipidation at 10 uM measured after 6 hrs by western blot analysis. Format: functional, cell-based.
In data set [6] the test system is N2a. Briefly: Inhibition of lipid synthesis related gene expression in MPP+-induced mouse N2a cells assessed as reduction in Fasn gene expression measured after 6 hrs by qRT-PCR analysis. The class given is functional. A general note: In qPCR the cycle at which signal appears reflects the starting amount.
The test system of data set [7] is N2a. Briefly: Upregulation of SREBP2 cleavage in MPP+-induced mouse N2a cells assessed as increase in active form of phospho-SREBP2 level measured up to 6 hrs by western blot analysis. Format: functional.
Data set [8] concerns the target T1, Vitamin D3 receptor (Homo sapiens). Briefly: Antagonist activity at VDR in human HeLa cells assessed as reduction in CYP27B1 mRNA expression at 10 uM measured after 4 hrs by […]. The class given is cell-based. To be noted: filed as antagonist.
For data set [9], the system named is N2a. Briefly: Induction of autophagy in MPP+-induced mouse N2a cells transfected with Atg7 shRNA assessed as increase in LC3-II expression at 10 uM measured after 6 hrs by western blot analysis. Format: functional, cell-based.
Data set [10] has as its target T1, Vitamin D3 receptor (Homo sapiens). Briefly: Antagonist activity at VDR in human HeLa cells assessed as decrease in mTOR phosphorylation at Ser2448 residue at 10 uM in presence or absence of calcitriol measured after 4 hrs by western blot analysis. The class given is cell-based.
Data set [11] deals with N2a. Briefly: Induction of autophagy in MPP+-induced mouse N2a cells infected with pAde-LC3-EGFP- mCherry assessed as formation of mCherry foci by measuring increased in red fluorescence at 10 uM measured after 4 hrs by Hoechst staining based confocal microscope analysis. Format: functional, cell-based.
The subject of data set [12] is SH-SY5Y. Briefly: Neuroprotective activity against SNCA-induced neurotoxicity in human SH-SY5Y cells transfected with adenovirus expressing […] SNCA assessed as reduction in […] SNCA expression at 10 uM measured after 6 hrs by western blot analysis. Format: functional, cell-based.
Data set [13] deals with SH-SY5Y. Briefly: Neuroprotective activity against A53T SNCA-induced cytotoxicity in human SH-SY5Y cells assessed as decrease in A53T SNCA induced LDH release at 10 uM by LDH assay. The class given is functional, cell-based.
Data set [14] deals with T1, Vitamin D3 receptor (Homo sapiens). Briefly: Antagonist activity at VDR in human HeLa cells assessed as increase in ratio of LC3-II to LC-I at 10 uM in presence or absence of calcitriol measured after 4 hrs by western blot analysis. The conditions noted are these: filed as antagonist. The class given is cell-based.
The test system of data set [15] is N2a. Briefly: Induction of autophagy in MPP+-induced mouse N2a cells assessed as increase in LC3-II expression at 10 uM measured after 6 hrs by western blot analysis. Format: functional, cell-based.
In data set [16] the test system is N2a. Briefly: Inhibition of lipid synthesis related gene expression in MPP+-induced mouse N2a cells assessed as reduction in ACACA gene expression measured after 6 hrs by qRT-PCR analysis. Format: functional.
Data set [17] concerns N2a. Briefly: Effect on SNCA oligomerization in mouse N2a cells transfected with Syn-luc1 and Syn-luc2 plasmids assessed as reduction in SNCA self-oligomerization by measuring luciferase activity at 10 to 20 uM measured after 6 hrs by bioluminescent protein-fragment complementation assay. Format: functional, cell-based. The conditions noted are these: dose 10-20 µM.
Data set [18] deals with N2a. Briefly: Inhibition of lipid synthesis related gene expression in MPP+-induced mouse N2a cells assessed as reduction in Insig-1 gene expression measured after 6 hrs by qRT-PCR analysis. Format: functional.
For data set [19], the system named is N2a. Briefly: Inhibition of lipid synthesis related gene expression in MPP+-induced mouse N2a cells assessed as reduction in Ldr gene expression measured after 6 hrs by qRT-PCR analysis. The class given is functional.
Data set [20] has as its system N2a. Briefly: Inhibition of lipid synthesis related gene expression in MPP+-induced mouse N2a cells assessed as reduction in Scap gene expression measured after 6 hrs by qRT-PCR analysis. Format: functional.
Data set [21] concerns N2a. Briefly: Upregulation of SREBP2 cleavage in MPP+-induced mouse N2a cells assessed as increase in active cleaved form of SREBP2 level measured up to 6 hrs by western blot analysis. The class given is functional.
Data set [22] concerns the target T1, Vitamin D3 receptor (Homo sapiens). Briefly: Antagonist activity at VDR in human HeLa cells assessed as reduction in CYP27B1 mRNA expression at 10 uM in presence of calcitriol measured after 4 hrs by […]. The class given is cell-based.

Chain of Nuclear factor NF-kappa-B complex (Homo sapiens) (P19838 whole entry, looked up): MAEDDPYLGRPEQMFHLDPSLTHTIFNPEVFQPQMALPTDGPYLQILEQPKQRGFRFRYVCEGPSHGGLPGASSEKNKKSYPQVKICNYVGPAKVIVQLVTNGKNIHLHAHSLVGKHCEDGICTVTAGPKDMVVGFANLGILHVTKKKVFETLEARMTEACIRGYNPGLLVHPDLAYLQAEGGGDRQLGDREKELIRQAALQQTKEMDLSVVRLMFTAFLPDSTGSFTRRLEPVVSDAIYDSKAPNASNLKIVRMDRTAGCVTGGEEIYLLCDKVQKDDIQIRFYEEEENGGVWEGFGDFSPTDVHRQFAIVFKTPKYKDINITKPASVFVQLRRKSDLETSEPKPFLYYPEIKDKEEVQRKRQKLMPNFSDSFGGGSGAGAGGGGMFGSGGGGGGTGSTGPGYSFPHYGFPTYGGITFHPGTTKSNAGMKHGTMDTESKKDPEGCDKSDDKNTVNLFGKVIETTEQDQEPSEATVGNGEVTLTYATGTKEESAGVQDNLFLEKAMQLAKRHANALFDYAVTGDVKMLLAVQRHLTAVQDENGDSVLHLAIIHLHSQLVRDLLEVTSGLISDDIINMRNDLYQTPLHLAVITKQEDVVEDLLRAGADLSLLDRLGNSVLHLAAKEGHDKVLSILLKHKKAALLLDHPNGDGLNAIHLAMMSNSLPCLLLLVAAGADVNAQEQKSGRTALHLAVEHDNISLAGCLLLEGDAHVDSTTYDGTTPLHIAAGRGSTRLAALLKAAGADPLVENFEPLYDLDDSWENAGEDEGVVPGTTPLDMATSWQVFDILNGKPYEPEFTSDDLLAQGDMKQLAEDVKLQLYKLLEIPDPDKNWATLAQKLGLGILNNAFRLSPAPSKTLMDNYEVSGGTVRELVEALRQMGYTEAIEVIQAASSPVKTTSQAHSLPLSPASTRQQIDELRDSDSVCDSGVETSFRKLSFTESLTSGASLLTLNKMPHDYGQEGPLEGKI
Chain of Nuclear factor NF-kappa-B complex (Homo sapiens) (Q00653 whole entry, looked up): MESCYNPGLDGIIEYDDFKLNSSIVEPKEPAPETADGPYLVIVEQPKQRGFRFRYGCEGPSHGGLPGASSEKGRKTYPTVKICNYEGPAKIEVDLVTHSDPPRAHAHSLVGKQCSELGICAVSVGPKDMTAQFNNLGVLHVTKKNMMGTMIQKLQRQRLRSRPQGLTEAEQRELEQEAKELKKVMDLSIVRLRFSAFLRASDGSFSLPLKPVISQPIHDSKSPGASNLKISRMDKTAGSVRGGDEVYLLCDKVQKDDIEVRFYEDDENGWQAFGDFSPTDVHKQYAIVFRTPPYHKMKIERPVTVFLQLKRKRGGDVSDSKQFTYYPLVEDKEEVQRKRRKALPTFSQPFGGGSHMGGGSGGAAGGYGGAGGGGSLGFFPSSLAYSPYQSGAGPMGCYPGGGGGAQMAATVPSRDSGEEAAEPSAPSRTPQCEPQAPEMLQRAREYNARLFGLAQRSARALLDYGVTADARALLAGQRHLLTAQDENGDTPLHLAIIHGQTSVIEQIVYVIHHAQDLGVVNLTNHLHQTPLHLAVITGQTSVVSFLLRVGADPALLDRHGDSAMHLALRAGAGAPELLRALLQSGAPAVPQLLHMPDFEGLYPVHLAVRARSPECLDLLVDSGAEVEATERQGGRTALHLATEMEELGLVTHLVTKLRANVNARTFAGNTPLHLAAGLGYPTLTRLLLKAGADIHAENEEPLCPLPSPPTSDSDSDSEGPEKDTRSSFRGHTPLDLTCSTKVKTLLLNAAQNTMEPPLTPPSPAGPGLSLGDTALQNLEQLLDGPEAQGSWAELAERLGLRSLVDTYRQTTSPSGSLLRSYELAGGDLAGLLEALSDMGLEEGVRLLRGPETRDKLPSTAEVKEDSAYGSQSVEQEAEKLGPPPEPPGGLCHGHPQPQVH
Chain of Nuclear factor NF-kappa-B complex (Homo sapiens) (Q04206 whole entry, looked up): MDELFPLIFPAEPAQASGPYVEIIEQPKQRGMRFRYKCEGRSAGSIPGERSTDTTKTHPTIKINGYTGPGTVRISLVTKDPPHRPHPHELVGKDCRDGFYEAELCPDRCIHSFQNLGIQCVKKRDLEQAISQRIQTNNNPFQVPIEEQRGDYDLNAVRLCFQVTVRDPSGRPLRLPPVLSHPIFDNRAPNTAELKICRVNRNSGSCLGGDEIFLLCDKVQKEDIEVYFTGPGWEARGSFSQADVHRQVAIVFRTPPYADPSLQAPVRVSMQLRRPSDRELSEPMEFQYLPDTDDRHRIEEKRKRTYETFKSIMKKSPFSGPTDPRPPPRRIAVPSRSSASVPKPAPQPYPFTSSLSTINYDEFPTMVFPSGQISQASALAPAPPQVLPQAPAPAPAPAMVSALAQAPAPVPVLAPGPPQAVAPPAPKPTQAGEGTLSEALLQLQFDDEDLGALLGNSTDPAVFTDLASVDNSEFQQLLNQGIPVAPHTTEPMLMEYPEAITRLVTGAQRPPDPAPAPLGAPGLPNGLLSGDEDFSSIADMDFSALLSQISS
Chain of Signal transducer and activator of transcription 3 (Homo sapiens) (P40763 whole entry): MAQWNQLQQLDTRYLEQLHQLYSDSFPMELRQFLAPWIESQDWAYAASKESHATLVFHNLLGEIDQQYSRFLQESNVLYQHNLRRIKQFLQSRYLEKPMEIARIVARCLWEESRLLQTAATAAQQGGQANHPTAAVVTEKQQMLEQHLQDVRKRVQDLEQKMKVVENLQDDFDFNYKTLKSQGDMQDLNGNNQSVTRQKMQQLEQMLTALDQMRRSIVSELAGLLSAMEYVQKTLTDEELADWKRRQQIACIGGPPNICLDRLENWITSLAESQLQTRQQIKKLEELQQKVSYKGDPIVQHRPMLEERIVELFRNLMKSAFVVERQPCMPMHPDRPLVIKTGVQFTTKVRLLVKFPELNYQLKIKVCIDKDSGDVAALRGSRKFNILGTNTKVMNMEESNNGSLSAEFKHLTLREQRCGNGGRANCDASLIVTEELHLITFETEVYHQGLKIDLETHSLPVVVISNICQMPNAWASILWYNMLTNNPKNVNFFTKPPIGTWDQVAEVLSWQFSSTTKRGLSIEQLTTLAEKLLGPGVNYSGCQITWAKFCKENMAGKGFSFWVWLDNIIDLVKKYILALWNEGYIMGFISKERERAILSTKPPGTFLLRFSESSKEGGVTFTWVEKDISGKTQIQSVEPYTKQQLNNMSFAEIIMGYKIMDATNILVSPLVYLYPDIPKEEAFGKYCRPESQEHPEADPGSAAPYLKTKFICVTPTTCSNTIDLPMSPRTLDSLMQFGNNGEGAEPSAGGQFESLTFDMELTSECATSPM

In the case of `C=C1CC[C@@H]2[C@]3(C)COC(C)(C)O[C@@H]3CC[C@@]2(C)[C@@H]1C/C=C1/C(O)OC[C@H]1O[Si](C)(C)C(C)(C)C` (stereo partly drawn), the Activity result in the data set with HeLa is “Non-Toxic”. For the same compound, the inhibition result in data set [1], in [2] and in data set [3] was “inactive” in each case.

Take `C=C1CC[C@@H]2[C@](C)(CO)[C@H](O)CC[C@@]2(C)[C@@H]1C/C=C1/C(O)OC[C@H]1O[Si](CC)(CC)CC` (stereo partly drawn): in the data set with HeLa, the Activity entry is recorded as “Non-Toxic”. Moreover, the inhibition result in [1] and in data set [3] was “inactive” in each case.

As for `C=C1CC[C@@H]2[C@]3(C)COC(C)(C)O[C@@H]3CC[C@@]2(C)[C@@H]1C/C=C(/CO)[C@@H](CO)O[Si](C)(C)C(C)(C)C`, the Activity entry in the data set with HeLa is reported as “Non-Toxic”. Besides, the inhibition result in data set [1], in [2] and in data set [3] was “inactive” throughout.

Turning to `C=C1CC[C@@H]2[C@]3(C)COC(C)(C)O[C@@H]3CC[C@@]2(C)[C@@H]1C/C=C1/C(=O)OC[C@H]1O[Si](CC)(CC)CC`, in the data set on HeLa, the Activity entry is reported as “Non-Toxic”. The inhibition entry in data set [1] and in data set [3] was “inactive” in each case. For the same compound, in data set [4], the result was Active.

As for `C=C1CC[C@@H]2[C@](C)(COC(C)=O)[C@H](O)CC[C@@]2(C)[C@@H]1C/C=C(/COC(C)=O)[C@@H](COC(C)=O)O[Si](C)(C)C(C)(C)C`, the outcome with N2a [5], in the data set on N2a [6], in the data set with N2a [16], with N2a [18], in the data set with N2a [19] and with N2a [20] was inactive. In the data set with HeLa, the Activity result is listed as “Non-Toxic”. In addition, the inhibition entry in data set [1] (filed as antagonist) and in data set [8] was “Active” in each case. Besides, the result (in the data set on N2a [7]; with N2a [9]; in the data set on N2a [11]; in the data set with SH-SY5Y [12]; with SH-SY5Y [13]; in data set [14]) was Active. Further, the result in the data set with N2a [15], in the data set on N2a [17] and in the data set on N2a [21] was Active. For the same compound, the inhibition entry in [10] and in [3] was “inactive” in each case.

As for `C=C1CC[C@@H]2[C@](C)(CO)[C@H](O)CC[C@@]2(C)[C@@H]1C/C=C(/COC(C)=O)[C@@H](COC(C)=O)O[Si](C)(C)C(C)(C)C`, in [22], the result was inactive. The Activity entry in the data set with HeLa is “Non-Toxic”. Moreover, the inhibition result in data set [1] (filed as antagonist) and in data set [10] (filed as antagonist) was “Active” throughout. Besides, in data set [14], the result was Active. The inhibition entry in [3] is “inactive”.

As to `C=C1CC[C@@H]2[C@](C)(COC(C)=O)[C@H](OC(C)=O)CC[C@@]2(C)[C@@H]1C/C=C(/COC(C)=O)[C@@H](COC(C)=O)O[Si](C)(C)C(C)(C)C`, the Activity entry with HeLa is listed as “Non-Toxic”. Also, the inhibition entry in data set [1] and in data set [3] was “inactive” throughout.

For `C=C1CC[C@@H]2[C@]3(C)COC(C)(C)O[C@@H]3CC[C@@]2(C)[C@@H]1C/C=C1/C(O)OC[C@H]1O[Si](CC)(CC)CC` (stereo partly drawn), in the data set on HeLa, the Activity entry was “Non-Toxic”. Also, the inhibition entry in data set [1] (filed as antagonist), in [8] and in [10] (filed as antagonist) was “Active” each time. For the same compound, the outcome in data set [14] was Active. Also, in [3], the inhibition entry is “inactive”.

Regarding `C=C1CC[C@@H]2[C@]3(C)COC(C)(C)O[C@@H]3CC[C@@]2(C)[C@@H]1C/C=C(/COC(C)=O)[C@@H](COC(C)=O)O[Si](C)(C)C(C)(C)C`, the Activity result in the data set with HeLa is “Non-Toxic”. Besides, the inhibition entry in [1] and in data set [3] was “inactive” throughout.

On to `C=C1CC[C@@H]2[C@](C)(CO)[C@H](O)CC[C@@]2(C)[C@@H]1C/C=C1/C(O)OC[C@H]1O[Si](C)(C)C(C)(C)C` (stereo partly drawn), for which the Activity result in the data set on HeLa is “Non-Toxic”. Moreover, in [1] (filed as antagonist), the inhibition result was “Active”. Also, the inhibition result in data set [3] was “inactive”.

Take `C=C1CC[C@@H]2[C@]3(C)COC(C)(C)O[C@@H]3CC[C@@]2(C)[C@@H]1C/C=C1/C(=O)OC[C@H]1O[Si](C)(C)C(C)(C)C`: the Activity result with HeLa is “Non-Toxic”. Also, the inhibition result in [1] and in data set [3] was “inactive” in each case.

As to `C=C1CC[C@@H]2[C@]3(C)COC(C)(C)O[C@@H]3CC[C@@]2(C)[C@@H]1C/C=C(/C=O)[C@@H](COC(C)=O)O[Si](C)(C)C(C)(C)C`, the Activity result with HeLa is “Non-Toxic”. The inhibition result in data set [1] (filed as antagonist), in data set [8] and in [10] (filed as antagonist) was “Active” throughout. Moreover, the inhibition entry in data set [3] is “inactive”.

In the case of `C=C1CC[C@@H]2[C@]3(C)COC(C)(C)O[C@@H]3CC[C@@]2(C)[C@@H]1C/C=C(/CO)[C@@H](CO)O[Si](CC)(CC)CC`, in the data set with HeLa, the Activity entry is recorded as “Non-Toxic”. For the same compound, the inhibition result in data set [1] (filed as antagonist) and in data set [2] was “Active” throughout. Moreover, the inhibition entry in data set [3] was “inactive”.
